Earlier results, collected in patent US20050222163A1, “Combinations of signal transduction inhibitors” (PFIZER INC, priority 2004, published 2005).

What was measured:
[1] = comparison with predecessor CI-1040, result in words
[2] = tested on: phosphorylated ERK1 and ERK2; conditions: background statement, result in words

Row | SMILES | metabolic stability relative to CI-1040 [1] | levels of phosphorylated ERK1 and ERK2 [2]
1 | O=C(NOC[C@H](O)CO)c1ccc(F)c(F)c1Nc1ccc(I)cc1F [N-[(R)-2,3-Dihydroxy-propoxy]-3,4-difluoro-2-(2-fluoro-4-iodo-phenylamino)-benzamide] | metabolically more stable | significantly inhibits the phosphorylation of ERK1 and ERK2
2 | O=C(NOCC1CC1)c1ccc(F)c(F)c1Nc1ccc(I)cc1Cl [CI-1040, 2-(2-Chloro-4-iodo-phenylamino)-N-cyclopropylmethoxy-3,4-difluoro-benzamide, reference compound] |  | significant decrease
